Test results as given in patent US4177282A, “Hydantoin therapeutic agents” (priority 1978, dated 1979).
Counter-ions that a name gives are not always drawn.

Columns and labels:
[1] = system: sorbitol accumulation in the sciatic nerve of streptozotocinized (i.e., diabetic) rats; test: inhibition of sorbitol accumulation in the sciatic nerve of streptozotocinized (diabetic) rats; type: in vivo, rat; settings: measured at 27 hours, vs untreated
Procedure: (§1) The activity of the compounds of the present invention, as agents for the control of chronic diabetic complications, is determined by their ability to successfully pass one or more of the following standard biological and/or pharmacological tests, viz., (1) measuring their ability to inhibit the enzyme activity of isolated aldose reductase; (2) measuring their ability to reduce or inhibit sorbitol accumulation in the sciatic nerve of acutely streptozotocinized (i.e., diabetic) rats; (3) measuring their ability to reverse alredy-elevated sorbitol levels in the sciatic nerve and lens of chronic streptozotocin-induced diabetic rats; (4) measuring their ability to prevent or inhibit galactitol formation in the lens of acutely galactosemic rats, and (5) measuring their ability to delay cataract formation and reduce the severity of lens opacities in chronic galactosemic rats.
The following spiro-hydantoin compounds of Preparations B and C and Examples I-II, respectively, were tested for their ability to reduce or inhibit sorbitol accumulation in the sciatic nerve of streptozotocinized (i.e., diabetic) rats by the procedure essentially described in U.S. Pat. No. 3,821,383. In the present study, the amount of sorbitol accumulation in the sciatic nerves was measured 27 hours after induction of diabetes. The compounds were administered orally at the dose levels indicated 4, 8 and 24 hours following the administration of streptozotocin. The results obtained in this manner are presented below in terms of percent inhibition (%) afforded by the test compound as compared to the case where no compound was administered (i.e., the untreated animal where sorbitol levels normally rise from approximately 50-100 mM/g. tissue to as high as 400 mM/g. tissue in the 27-hour test period): […]

[2] = molecular target: T1, partially purified aldose reductase enzyme obtained from calf lens (Bos taurus, UniProt P16116); test: inhibition of isolated aldose reductase enzyme activity (procedure of S. Hayman et al., as modified by K. Sestanj et al.); type: biochemical; settings: for inhibition at 100 µM / inhibition at 10 µM / inhibition at 1 µM / inhibition at 0.1 µM / Percent Inhibition (%) of aldose reductase enzyme activity: calf lens enzyme; for inhibition at 100 µM / inhibition at 10 µM / inhibition at 1 µM / inhibition at 0.1 µM: read-out: Percent Inhibition (%) of aldose reductase enzyme activity
T1 construct: partially purified aldose reductase enzyme obtained from calf lens; from tissue; host or cells: calf lens
Procedure: as §1
In every case, the substrate employed was partially purified aldose reductase enzyme obtained from calf lens.

[3] = system: sorbitol levels in diabetic rats; test: control (inhibition) of formation of sorbitol levels in diabetic rats, oral; type: in vivo, rat; settings: 0.25 mg./kg. to 5.0 mg./kg.
From the text: As previously indicated, the dextrorotatory spiro-hydantoin compounds of this invention are all readily adapted to therapeutic use as aldose reductase inhibitors for the control of chronic diabetic complications, in view of their ability to reduce lens sorbitol levels in diabetic subjects to a statistically significant degree. […] The other compounds of this invention also cause similar results. Furthermore, the herein described compounds of this invention can be administered by either the oral or parenteral routes of administration, for the present purposes at hand, without causing any significant untoward pharmacological side reactions to occur in the subject to whom they are so administered. In general, these compounds are ordinarily administered in dosages ranging from about 0.05 mg. to about 5.0 mg. per kg. of body weight per day, although variations will necessarily occur depending upon the weight and condition of the subject being treated and the particular route of administration chosen.

[4] = system: galactitol levels in the lens of galactosemic subjects; test: lowering of galactitol levels in the lens of galactosemic subjects; type: in vivo, rat
Procedure: as §1

[5] = system: sorbitol levels in the sciatic nerve and lens of diabetic subjects; test: lowering of sorbitol levels in the sciatic nerve and lens of diabetic subjects; type: in vivo, rat
Procedure: as §1

solubility in water = type: physicochemical; settings: amorphous powder, freeze-dried
[6] = 0.25 mg./kg. orally at 4, 8 and 24 hours after streptozotocin
[7] = 0.75 mg./kg. orally at 4, 8 and 24 hours after streptozotocin
[8] = 1.5 mg./kg. orally at 4, 8 and 24 hours after streptozotocin
[9] = 2.5 mg./kg. orally at 4, 8 and 24 hours after streptozotocin

O=C1NC(=O)C2(CCOc3ccc(F)cc32)N1 (racemic) [dl-Cpd. of Prep. B, dl-6-fluoro-spiro-[chroman-4,4'-imidazolidine]-2',5'-dione]
Percent Inhibition (%) of sorbitol accumulation in the sciatic nerve [1, 6]: 19% | Percent Inhibition (%) of sorbitol accumulation in the sciatic nerve [1, 7]: 45% | Percent Inhibition (%) of sorbitol accumulation in the sciatic nerve [1, 8]: 72% | inhibition at 100 µM ([2]; 10^-4 M): 85% | inhibition at 10 µM ([2]; 10^-5 M): 58% | inhibition at 1 µM ([2]; 10^-6 M): 52% | inhibition at 0.1 µM ([2]; 10^-7 M): 3%

O=C1NC(=O)C2(CCSc3ccc(F)cc32)N1 (racemic) [dl-Cpd. of Prep. C, dl-6'-fluoro-spiro-[imidazolidine-4,4'-thiochroman]-2,5-dione]
Percent Inhibition (%) of sorbitol accumulation in the sciatic nerve [1, 7]: 13% | Percent Inhibition (%) of sorbitol accumulation in the sciatic nerve [1, 8]: 45% | Percent Inhibition (%) of sorbitol accumulation in the sciatic nerve [1, 9]: 74% | inhibition at 100 µM ([2]; 10^-4 M): 81% | inhibition at 10 µM ([2]; 10^-5 M): 77% | inhibition at 1 µM ([2]; 10^-6 M): 66% | inhibition at 0.1 µM ([2]; 10^-7 M): 38%

O=C1NC(=O)C2(CCOc3ccc(F)cc32)N1 (single isomer, unassigned) [1-Isomer of Ex. I, l-6-fluoro-spiro-[chroman-4,4'-imidazolidine]-2',5'-dione]
Percent Inhibition (%) of sorbitol accumulation in the sciatic nerve [1, 7]: 19% | Percent Inhibition (%) of sorbitol accumulation in the sciatic nerve [1, 9]: 6% | Percent Inhibition (%) of sorbitol accumulation in the sciatic nerve ([1]; 5.0 mg./kg. orally at 4, 8 and 24 hours after streptozotocin): 22% | Percent Inhibition (%) of aldose reductase enzyme activity ([2]; 10^-4 M): 88% | Percent Inhibition (%) of aldose reductase enzyme activity ([2]; 10^-5 M): 63% | Percent Inhibition (%) of aldose reductase enzyme activity ([2]; 10^-6 M): 23% | Percent Inhibition (%) of aldose reductase enzyme activity ([2]; 10^-7 M): -4%

O=C1NC(=O)C2(CCSc3ccc(F)cc32)N1 (single isomer, unassigned) [1-Isomer of Ex. II, l-6'-fluoro-spiro-[imidazolidine-4,4'-thiochroman]-2,5-dione]
Percent Inhibition (%) of aldose reductase enzyme activity ([2]; 10^-4 M): 87% | Percent Inhibition (%) of aldose reductase enzyme activity ([2]; 10^-5 M): 65% | Percent Inhibition (%) of aldose reductase enzyme activity ([2]; 10^-6 M): 11% | Percent Inhibition (%) of aldose reductase enzyme activity ([2]; 10^-7 M): 10%

O=C1NC(=O)C2(CCOc3ccc(F)cc32)N1 (single isomer, unassigned) [d-Isomer of Ex. I, d-6-fluoro-spiro-[chroman-4,4'-imidazolidine]-2',5'-dione]
control (i.e., inhibit) the formation of sorbitol levels (in words) [3]: to a significantly high degree | lowering galactitol levels in the lens (in words) [4]: to a very significantly high degree | Percent Inhibition (%) of sorbitol accumulation in the sciatic nerve [1, 6]: 47% | Percent Inhibition (%) of sorbitol accumulation in the sciatic nerve [1, 7]: 78% | lowering sorbitol levels in the sciatic nerve and lens (in words) [5]: equally effective in lowering sorbitol levels in the sciatic nerve and lens of diabetic subjects | aldose reductase inhibitory activity (in words) [2]: extremely potent | inhibition at 100 µM ([2]; 10^-4 M): 100% | Percent Inhibition (%) of aldose reductase enzyme activity ([2]; 10^-6 M): 98% | Percent Inhibition (%) of aldose reductase enzyme activity ([2]; 10^-7 M): 39%

O=C1NC(=O)C2(CCSc3ccc(F)cc32)N1 (single isomer, unassigned) [d-Isomer of Ex. II, d-6'-fluoro-spiro-[imidazolidine-4,4'-thiochroman]-2,5-dione]
lowering galactitol levels in the lens (in words) [4]: to a very significantly high degree | Percent Inhibition (%) of sorbitol accumulation in the sciatic nerve [1, 7]: 55% | lowering sorbitol levels in the sciatic nerve and lens (in words) [5]: equally effective in lowering sorbitol levels in the sciatic nerve and lens of diabetic subjects | aldose reductase inhibitory activity (in words) [2]: extremely potent | inhibition at 100 µM ([2]; 10^-4 M): 89% | inhibition at 10 µM ([2]; 10^-5 M): 80% | Percent Inhibition (%) of aldose reductase enzyme activity ([2]; 10^-6 M): 76% | Percent Inhibition (%) of aldose reductase enzyme activity ([2]; 10^-7 M): 74%

O=C1NC(=O)C2(CCOc3ccc(F)cc32)N1 (single isomer, unassigned) [sodium salt of d-6-fluoro-spiro-[chroman-4,4'-imidazolidine]-2',5'-dione]
solubility in water (in words) (solubility in water): freely soluble in water
